From patent US20040126338A1, “Process of converting trans-lutein into cis-lutein and the uses thereof” (priority 2002, published 2004)
Each block holds one compound with its values, some of them ahead of it.

What was measured:
[1] = Persistence of cis-isomers during heating or reflux, normal phase HPLC percent area; assay type: physicochemical
Experimental: (§1) The solvent solutions are refluxed in the following examples by placing the glass flask on a heating unit. A reflux column, which is cooled by non-recirculating cold water, is attached to the flask. The solution is then heated to the boiling point of the given liquid, except for propylene glycol, which boils at 187° C. The refluxing time varies slightly between solution samples. The refluxing times for each example are stated for each below. Samples are taken periodically to test the concentration of the cis-isomers, these are referred to as collected samples. Similarly, the oil solutions were heated in the following examples by placing the glass flask into a heated oil bath filled with mineral oil, which was stirred constantly, at 72° C.
Storing and centrifuging refers to the collected samples being placed into 12×75 mm glass culture tubes and wrapped with Parafilm® (Pechiney Plastic Packaging) and stored in a freezer until analysis. When prepped for analysis the collected samples are first warmed to room temperature and then the aliquot is centrifuged at 12,000 rpm for 5 minutes to remove trans-isomers crystals. The trans-isomer crystals are removed because the cis-isomers of lutein are known to be more soluble than the trans-isomers, which will allow them to remain in solution once formed. Next 1 ml of the centrifuged collected sample is placed into a High Performance Liquid Chromotography (HPLC) vial for analysis.
Analysis of the solutions formed from lutein and a liquid are analyzed using both normal phase HPLC and a spectophotometer. For the HPLC analysis, 1 ml of the collected sample of each solution is filtered through a 0.45 micron syringe filter into a HPLC sample vial. The sample is first dried using a nitrogen stream and then the remaining solids are dissolved in a 1 ml of a 65:35 hexane:ethylacetate mixture. […] In this way the percent area of the lutein cis-isomer peak is determined.

[2] = cited from earlier work
[3] = tested on: age-related macular degeneration; conditions: consumption of lutein and zeaxanthin; cited from earlier work
[4] = Room temperature saturation limit and solubility on heating of lutein dry cake in solvents; assay type: physicochemical; conditions: for Room temp. sataturation limit (%): room temperature
Experimental: The purpose of this preparation is to analyze the effect of heat on a solution of lutein in four solvents, hexane, ethanol, isopropanol, and acetone, to determine whether isomerization from trans-isomers of lutein to various cis-isomers occurs, and what concentration of each isomer is formed. The solutions were prepared using 100 ml of the above stated solvents to dissolve varying weights of lutein dry cake. Initial solubility limits ere tested by adding a small amount of dry cake and swirling the flask briefly. If the sample appeared saturated, it was centrifuged to verify that a pellet of undissolved material was formed. If the solution was not saturated, additional dry cake was added until saturation was reached. Once the approximate solubility at room temperature was determined for each solvent, excess dry cake was added for the increased solubility that occurs through heating and isomerization, in order to maintain saturation during the entire experiment.

[5] = Observed solubility of lutein dry cake in oils; assay type: physicochemical
Experimental: Using an analytical balance, the preparation of solution for the following examples for cis-isomerization includes placing weighed dry cake lutein into a flask and adding one of the above liquids to the flask to form the solution. The solution is first hand swirled and its solubility is observed. Following a baseline sample, which is taken at the 0 hour mark, the prepared lutein solution is placed on a heat source and refluxed for a period of time ranging between 0-120 hours.
The purpose of this preparation is to analyze the effect of heat on a solution of lutein in the above stated oils and determine whether isomerization from trans-lutein to various cis-isomers occurs, and the concentration of each isomer that is formed. The oils used in this example were corn oil, which was used as a control, corn mint oil, spearmint oil, peppermint oil, tea tree oil, and bay oil. […] The solutions were made by adding 20 ml of oil to the weighed lutein. The sample heated in an oil bath. A baseline 2 ml sample was taken and additional 2 ml samples taken at 1, 4, 8, 24, and 48 hours.
(§2) In this preparation a solution was made using 2 g of lutein dry cake and 20 ml of oil. The solution was heated in an oil bath. Samples (2 ml) were taken at 0, 1, 4, 6.5, 24, and 48 hours. As before, samples were analyzed qualitatively using normal phase HPLC and spectophotometer. However, quantitative analysis was also performed, by taking 1 ml of the HEAT (hexane, ethanol, acetone and toluene) solution previously prepared, diluting it to 25 ml in ethanol, and determining the absorbance on an UV-Vis absorption spectrophotometer. This type of analysis is often useful for quantitative measurements. All of the thyme oil samples required a 1:20 dilution of the ethanol solution before reading on the UV-Vis.
Samples containing 25% solutions were prepared using 2.5 g dry cake lutein and 10 ml of liquid. The liquid used in solution was from the group consisting of corn oil, diH2O, or Spectrum brand white thyme oil. The “dry” sample contained 2.5 g dry cake lutein and was preformed without the addition of any liquid. […]

[6] = Carotenoid content of lutein heated in oils at 72° C., UV-Vis absorbance at 446 nm; assay type: physicochemical
Experimental: as §1
as §2, with “Samples (2 ml) were taken at 0, 1, 4, 6.5, 24, and 48 hours.” left out

[7] = among carotenoids; cited from earlier work
prostate cancer = conditions: in vivo; cited from earlier work
[8] = Cis-isomer content of supernatants versus pellets of the isopropanol solution; assay type: physicochemical
Experimental: The purpose of this preparation was to analyze the effect of isopropanol in solution with lutein, and analyze the effect of adding water to the lutein/isopropanol solution. In this example a solution was prepared by adding 2.51 g of dry cake lutein (lot 082405-08) to 50 ml isopropanol to a flask. The prepared solution was swirled and refluxed at 81° C. for 8 hours.
Samples were taken at 0, 1, 4, 6, and 8 hours to follow the isomerization. At 8 hours the sample was transferred to a 150 ml Erlenmeyer flask and placed in a freezer to cool. When partially cooled, aliquots were taken for precipitation and samples were diluted to 2:1, 1:1, and 1:2 ratios of water:isopropanol. An additional sample was prepared which contained only isopropanol solution. The samples were vortexed and centrifuged. Supernatant and pellets were collected and stored in a 1.5 ml microfuge tube until analysis.

[9] = UV absorption spectra of cis-lutein and trans-lutein; assay type: physicochemical
Source text: FIG. 5 is a graph of the trans-lutein spectrum.
FIG. 6 is a graph of the cis-lutein spectrum.

stability ([1]; Example 4 thyme oils at 72° C., 4-48 hours): appears to be stable
Compound: CC(C=CC=C(C)C=CC1=C(C)CC(O)CC1(C)C)=CC=CC=C(C)C=CC=C(C)C=CC1C(C)=CC(O)CC1(C)C (single isomer, unassigned) [13,13′ cis-isomer, 13,13′ cis-lutein]
stability for extended periods ([1]; Example 3 oils at 72° C., concentration declines after 24 hour sample): did not appear to be highly stable for extended periods

Compound: CC1=C[C@H](O)CC(C)(C)[C@H]1/C=C/C(C)=C/C=C/C(C)=C/C=C/C=C(C)/C=C/C=C(C)/C=C/C1=C(C)C[C@@H](O)CC1(C)C (single isomer, unassigned) [trans-isomers of lutein, trans-lutein]
stability in crystalline forms ([2]; crystalline forms): stable in crystalline forms

Compound: CC1=C(/C=C/C(C)=C/C=C/C(C)=C/C=C/C=C(C)/C=C/C=C(C)/C=C/C2=C(C)C[C@@H](O)CC2(C)C)C(C)(C)C[C@H](O)C1 [Zeaxanithin, zeaxanthin]
reduction in age-related macular degeneration [3]: 57%

Room temp. sataturation limit (%) ([4]; in acetone): ˜0.45% | Room temp. sataturation limit (%) ([4]; in ethanol): ˜0.3% | Room temp. sataturation limit (%) ([4]; in hexane): <1% | solubility when the solution was heated ([4]; in isopropanol, reflux): increased dramatically | Room temp. sataturation limit (%) ([4]; in isopropanol): ˜0.2% | solubility in corn oil compared with thyme oils ([5]; Example 4, 2 g dry cake in 20 ml oil): least soluble in corn oil | carotenoid concentration observed ([6]; thyme oil, predicted concentration 10%): 7.18%
Compound: CC1=C[C@H](O)CC(C)(C)[C@H]1/C=C/C(C)=C/C=C/C(C)=C/C=C/C=C(C)/C=C/C=C(C)/C=C/C1=C(C)C[C@@H](O)CC1(C)C [lutein dry cake, lutein]

solubility when heated in white thyme oil ([5]; Example 5, 25% w/v, Spectrum white thyme oil): good solubility | time for which lutein was stable (carotenoid content) ([6]; in thyme oil): about 6.5 hours
Compound: CC1=C[C@H](O)CC(C)(C)[C@H]1/C=C/C(C)=C/C=C/C(C)=C/C=C/C=C(C)/C=C/C=C(C)/C=C/C1=C(C)C[C@@H](O)CC1(C)C [lutein]
solubility in corn oil compared with the other oils ([5]; Example 3, corn mint, spearmint, peppermint, tea tree and bay oil, 3 mg or 4 mg in 20 ml): less soluble in corn oil than in the other oils | reduction in age-related macular degeneration [3]: 57%

Compound: CC(C)=CCC/C(C)=C/C=C/C(C)=C/C=C/C(C)=C/C=C/C=C(C)/C=C/C=C(C)/C=C/C=C(\C)CCC=C(C)C [lycopene]
oxygen quenching [7]: best carotenoid oxygen quencher | reducing the risk of prostate cancer (prostate cancer): active in reducing the risk of prostate cancer

Compound: cis-lutein [cis-isomers of lutein]
stability of the cis-isomer formed ([1]; propylene glycol reflux (75° C.), content decreased after four hours): not stable | solubility compared with trans-isomers [8]: higher than trans-isomers | ultraviolet light (UV) absorption compared with trans-isomer lutein [9]: higher | stability upon reflux in ethanol ([2]; reflux in ethanol): easily reverted to the more thermodynamically stable trans-isomers
